What was measured:
Type in all cases: physicochemical
[1] = Water solubility of crystalline forms; conditions: for Water solubility: Form B value according to literature findings and experimental data, Form M at the same conditions
[2] = Moisture sorption analysis (Dynamic Vapour Sorption); conditions: result in words
Experimental: Water Vapour Sorption isotherms were obtained using a Dynamic Vapour Sorption apparatus (model: DVS—Advantage, supplier: Surface Measurement Systems Limited). The DVS apparatus consists of an ultra-microbalance housed inside a temperature-controlled cabinet. The sample was placed into a DVS sample pan under a stream of nitrogen (200 sccm) at 25° C. The humidity was increased ramping in 10% RH (relative humidity) steps from close to 0% RH to 90% RH (sorption phase). Next the humidity was decreased in a similar fashion for the desorption phase. The sample was held at each RH step for mass stabilization (dm/dt 0.02%/min) but not less than 10 minutes. Two cycles of sorption and desorption were investigated.

[3] = Dissolution studies of tablets, paddle method; conditions: at 30 minutes
Experimental: Dissolution studies were performed using a Hanson SR8PLUS dissolution apparatus, according to European Pharmacopoeia apparatus, paddle method. The samples were tested in 900 mL pH 6.8 with 0.3% SLS at 37.0° C.+/−0.5° C. and the paddle rotation speed was set at 75 rpm. Dissolution study was conducted for 60 min and samples were analyzed using HPLC method.

Structure (SMILES)	Water solubility [1] [µg/mL]	Water solubility of Form M relative to Form B (times greater) ([1]; same conditions) [times]	Hygroscopicity [2]	Higher dissolution rate compared with prior art Form B [3]	Stability with respect to humidity [2]
CCOc1cc([C@@H](CS(C)(=O)=O)N2C(=O)c3cccc(NC(C)=O)c3C2=O)ccc1OC [Form B, N-[2-[(1S)-1-(3-ethoxy-4-methoxyphenyl)-2-(methylsulfonyl)ethyl]-1,3-dioxo-2,3-dihydro-1H-isoindol-4-yl]acetamide, reference compound]	7 to 12				
CCOc1cc([C@@H](CS(C)(=O)=O)N2C(=O)c3cccc(NC(C)=O)c3C2=O)ccc1OC [Form M, N-[2-[(1S)-1-(3-ethoxy-4-methoxyphenyl)-2-(methylsulfonyl)ethyl]-1,3-dioxo-2,3-dihydro-1H-isoindol-4-yl]acetamide]	29	~3	substantially non-hygroscopic		
CCOc1cc([C@@H](CS(C)(=O)=O)N2C(=O)c3cccc(NC(C)=O)c3C2=O)ccc1OC [Form N, N-[2-[(1S)-1-(3-ethoxy-4-methoxyphenyl)-2-(methylsulfonyl)ethyl]-1,3-dioxo-2,3-dihydro-1H-isoindol-4-yl]acetamide]			substantially non-hygroscopic	more than 50%	stable with respect to humidity

Reference: patent US10774042B2, “Crystalline forms of apremilast” (ZAKLADY FARMACEUTYCZNE POLPHARMA SA, priority 2016, dated 2020)
